Experimental data from patent publication US9101577B2, “Analgesic pharmaceutical composition for oral administration” (Warszawski Uniwersytet Medyczny, priority 2011, dated 2015).

What was measured:
[1] = system: Male Wistar rats; experiment: Acute activity after single p.o. administration, paw withdrawal test (Randall and Selitto), % of analgesia; format: in vivo, rat; conditions: for analgesic activity on separate administration (codeine study) / analgesic activity / pain perception threshold on separate administration (dihydrocodeine study) / analgesic activity / pain threshold when administered alone (morphine study) / analgesic activity on separate administration (oxycodone study) / analgesic activity on separate administration (tramadol study): single separate administration p.o., magnesium salts 15 mg magnesium ions/kg; for analgesic activity on separate administration (codeine study): codeine 175 mg/kg; for analgesic activity / pain perception threshold on separate administration (dihydrocodeine study): dihydrocodeine 50 mg/kg; for effect on analgesic activity of codeine / activity on codeine analgesia compared to micronized form: 15 mg magnesium ions/kg p.o. with codeine 175 mg/kg p.o.; for effect on morphine analgesia / activity on morphine analgesia in comparison (to micronized magnesium lactate / to micronized form) / enhancement of morphine analgesia lasted up to: 15 mg magnesium ions/kg p.o. with morphine 15 mg/kg p.o.; for analgesic activity / pain threshold when administered alone (morphine study): morphine 15 mg/kg; for analgesic activity on separate administration (oxycodone study): oxycodone 5 mg/kg; for analgesic activity on separate administration (tramadol study): tramadol 125 mg/kg
Method: (§1) Male Wistar rats (250-300 g) were housed in a room maintained at a temperature of 20±2° C. under 12 h-12 h light-dark cycles. The animals had free access to food and water. Experimental groups consisted of six rats.
(§2) Drugs • Morphine at a dose of 15 mg/kg, codeine at a dose of 175 mg/kg, tramadol at a dose of 125 mg/kg and oxycodone at a dose of 5 mg/kg were dissolved in distilled water; • Dihydrocodeine at a dose of 50 mg/kg was suspended in 1% solution of methylcellulose; • Magnesium lactate (in micronized form)—at a dose of 15 mg magnesium ions/kg (150 mg of magnesium lactate/kg) was suspended in 0.5% solution of methylcellulose; • Magnesium lactate in normal (non-micronized) form—at doses of 15 or 30 mg magnesium ions/kg (150 or 300 mg of magnesium lactate/kg, respectively) was suspended in 0.5% solution of methylcellulose; • Magnesium citrate (in micronized and normal form)—at a dose of 15 mg magnesium ions/kg (112 mg of magnesium citrate/kg) was dissolved in distilled water; • Magnesium hydroaspartate (in micronized and normal form)—at a dose of 15 mg magnesium ions/kg (216 mg of magnesium hydroaspartate/kg) was suspended in 0.5% solution of methylcellulose; • Magnesium chloride (in micronized and normal form)—at a dose of 15 mg magnesium ions/kg (59.5 mg of magnesium chloride/kg) was dissolved in distilled water; • Control animals received a 0.5% solution of methylcellulose, a 1% solution of methylcellulose and distilled water, respectively, according to the same time schedule.
Magnesium salts and investigated opioids were administered concomitantly.
The micronized form of magnesium salts used in experiments contains particles of magnesium compounds of size D90<50 μm.
The normal magnesium salts form used in experiments contains particles of sizes commonly available in the market.
Acute activity of investigated drugs was measured in short time periods (from 5 to 300 min) after single administration.
(§3) All drugs were administered per os (p.o.); literally—orally. However, in practice, drugs were administered intragastric via a gastric tube.
(§4) Changes in pain thresholds were determined using a mechanical stimuli—the modification of the classic paw withdrawal test described by Randall and Selitto [1957]. In order to produce mechanical stimulation, progressively increasing pressure was applied to the dorsal surface of the rat's paw using an analgesymeter. The instrument used increased the force on the paw at a rate of 32 grams per second. The nociceptive threshold was defined as force in grams, at which the rat attempted to withdraw its right hindpaw and values of pressure were recorded at this very moment. At least two observers controlled the response.
(§5) Nociceptive thresholds (average of two trials) measured for each animal before single administration of investigated drugs (measurement of acute activity) or in day 0 before the first administration (measurement of prolonged activity) constituted the baseline pain threshold—A. Next, measurements of the withdrawal threshold to mechanical stimuli were performed at 5, 15, 30, 60, 90, 120, 180, 240, 300 min after drug administration (measurements of acute activity) or every day before drug administration (measurements of prolonged activity)—B.
(§6) In all experimental sessions (i.e. every day, each drug investigated) values of thresholds obtained (B) were compared to baseline (A).
(§7) Changes in pain threshold were calculated as a percent of baseline value according to the following formula:
(§8) [formula] • C—% of analgesia; A—pressure (in g), baseline pain threshold; B—pressure (in g) in consecutive measurements.
(§9) Percents of analgesia values calculated as above for individual animals were subsequently used to calculate average values in particular experimental groups and for statistical analysis.
The results are expressed as mean values±standard deviation of the mean (±S.E.M.).

[2] = system: Male Wistar rats; experiment: Prolonged activity on repeated daily p.o. administration (7 or 10 days), paw withdrawal test (Randall and Selitto); format: in vivo, rat; conditions: separate administration p.o., magnesium lactate micronized 15 or normal 30 mg magnesium ions/kg
Method: as §1, §2
Prolonged activity of the investigated drugs was measured the following day after initial administration, but before the next administration as well as after cessation of administration. Drugs were administered for seven consecutive days (administration of morphine, codeine, dihydrocodeine, oxycodone) or for ten days (administration of tramadol).
as §3, §4, §5, §6, §7, §8, §9
The results are expressed as mean values±standard […] of the mean (±S.E.M.). The statistical significance of differences between groups was evaluated by Student's t-test. p≦0.05 was accepted as statistically significant.

[3] = single administration, 15 mg magnesium ions/kg p.o. with tramadol 125 mg/kg p.o.
[4] = single administration, 15 mg magnesium ions/kg p.o. with oxycodone 5 mg/kg p.o.
[5] = single administration, 15 mg magnesium ions/kg p.o. with dihydrocodeine 50 mg/kg p.o.

## COc1ccc2c3c1O[C@H]1[C@@H](O)C=C[C@H]4[C@@H](C2)N(C)CC[C@@]341 [codeine, reference compound]
[1]
  analgesic activity on separate administration (codeine study): did not exhibit analgesic activity
[2]; codeine 175 mg/kg
  analgesic activity on separate administration, 7 days (codeine study): did not exhibit analgesic activity

## COc1ccc2c3c1O[C@H]1[C@@H](O)CC[C@H]4[C@@H](C2)N(C)CC[C@@]341 [dihydrocodeine, reference compound]
[1]
  analgesic activity / pain perception threshold on separate administration (dihydrocodeine study): only insignificantly raised the pain perception threshold (90-120 min)
[2]; dihydrocodeine 50 mg/kg
  pain threshold on separate administration, 7 days (dihydrocodeine study): insignificantly raised the nociceptive stimulus threshold on days 6 and 7

## [Cl-].[Cl-].[Mg+2] [magnesium chloride, Magnesium chloride]
[1]; [3]
  enhancement of tramadol analgesia lasted until: 90 min
  time at which enhancement of tramadol analgesia appeared: 5 min
  time of maximum activity on tramadol analgesia: 15 min

## N[C@@H](CC(=O)[O-])C(=O)[O-].N[C@@H](CC(=O)[O-])C(=O)[O-].[H+].[H+].[Mg+2] [magnesium hydroaspartate, Magnesium hydroaspartate]
[1]; [4]
  effect on oxycodone analgesia: also enhanced oxycodone analgesia

## [Cl-].[Cl-].[Mg+2] [micronized magnesium chloride, Magnesium chloride]
[1]; single administration
  effect on analgesic activity of codeine: significantly enhanced the analgesic activity of codeine
  effect on morphine analgesia: significantly enhanced morphine analgesia
[1]; [5]
  effect on dihydrocodeine analgesia: significantly enhanced dihydrocodeine analgesia
  time course of activity on dihydrocodeine analgesia: gradually increased and reached a maximum between min 45 and 90 of the measurements and then became weaker by min 210
[1]; [4]
  effect on oxycodone analgesia: significantly enhanced oxycodone analgesia
  time at which activity on oxycodone analgesia appeared: 5 min
  time course of activity on oxycodone analgesia: maintained at a constant level up to min 30 of the study, then became weaker in min 45 and disappeared in min 60
[1]; [3]
  effect on antinociceptive activity of tramadol: increased antynociceptive activity of tramadol
[1]
  analgesic activity on separate administration (codeine study): did not exhibit analgesic activity
  analgesic activity / pain perception threshold on separate administration (dihydrocodeine study): did not exhibit analgesic activity
  analgesic activity / pain threshold when administered alone (morphine study): Neither morphine nor magnesium lactate and chloride in micronized or normal form administered alone showed analgesic activity
  analgesic activity on separate administration (oxycodone study): showed no analgesic activity
  analgesic activity on separate administration (tramadol study): did not exhibit analgesic activity

## N[C@@H](CC(=O)O)C(=O)O [micronized magnesium hydroaspartate, Magnesium hydroaspartate]
[1]; single administration
  effect on analgesic activity of codeine: also enhanced codeine analgesia
  activity on morphine analgesia in comparison (to micronized magnesium lactate / to micronized form): weaker, although significant
  effect on morphine analgesia: also enhanced morphine analgesia
  enhancement of morphine analgesia lasted up to: 180 min
[1]; [5]
  activity on dihydrocodeine analgesia in comparison (to micronized form / to magnesium lactate): lasted a shorter time
  effect on dihydrocodeine analgesia: also enhanced dihydrocodeine analgesia
[1]; [3]
  activity on tramadol analgesia in comparison (to micronized form / to magnesium chloride): weaker throughout the study
  effect on antinociceptive activity of tramadol: also enhanced tramadol analgesia
[1]
  analgesic activity on separate administration (codeine study): did not exhibit analgesic activity
  analgesic activity / pain perception threshold on separate administration (dihydrocodeine study): did not exhibit analgesic activity
  analgesic activity / pain threshold when administered alone (morphine study): did not alter the pain threshold
  analgesic activity on separate administration (oxycodone study): showed no analgesic activity
  analgesic activity on separate administration (tramadol study): did not exhibit analgesic activity

## [Cl-].[Cl-].[Mg+2] [normal magnesium chloride, Magnesium chloride]
[1]; [5]
  activity on dihydrocodeine analgesia in comparison (to micronized form / to magnesium lactate): somewhat weaker

## N[C@@H](CC(=O)O)C(=O)O [normal magnesium hydroaspartate, Magnesium hydroaspartate]
[1]; single administration
  activity on codeine analgesia compared to micronized form: significantly weaker
  activity on morphine analgesia in comparison (to micronized magnesium lactate / to micronized form): much weaker
[1]; [5]
  activity on dihydrocodeine analgesia in comparison (to micronized form / to magnesium lactate): significantly weaker
[1]; [4]
  activity on oxycodone analgesia compared to micronized form: enhanced oxycodone analgesia significantly less when compared to the micronized form
[1]
  analgesic activity on separate administration (codeine study): did not exhibit analgesic activity
  analgesic activity / pain perception threshold on separate administration (dihydrocodeine study): did not exhibit analgesic activity
  analgesic activity / pain threshold when administered alone (morphine study): did not alter the pain threshold
  analgesic activity on separate administration (oxycodone study): showed no analgesic activity
  analgesic activity on separate administration (tramadol study): did not exhibit analgesic activity

## Magnesium citrate
[1]; [4]
  effect on oxycodone analgesia: also enhanced oxycodone analgesia

## Magnesium citrate [micronized magnesium citrate]
[1]; single administration
  effect on analgesic activity of codeine: also enhanced codeine analgesia
  activity on morphine analgesia in comparison (to micronized magnesium lactate / to micronized form): weaker, although significant
  effect on morphine analgesia: also enhanced morphine analgesia
  enhancement of morphine analgesia lasted up to: 120 min
[1]; [5]
  activity on dihydrocodeine analgesia in comparison (to micronized form / to magnesium lactate): lasted a shorter time
  effect on dihydrocodeine analgesia: also enhanced dihydrocodeine analgesia
[1]; [3]
  effect on antinociceptive activity of tramadol: also enhanced tramadol analgesia
[1]
  analgesic activity on separate administration (codeine study): did not exhibit analgesic activity
  analgesic activity / pain perception threshold on separate administration (dihydrocodeine study): did not exhibit analgesic activity
  analgesic activity / pain threshold when administered alone (morphine study): did not alter the pain threshold
  analgesic activity on separate administration (oxycodone study): showed no analgesic activity
  analgesic activity on separate administration (tramadol study): did not exhibit analgesic activity

## Magnesium citrate [normal magnesium citrate]
[1]; single administration
  activity on codeine analgesia compared to micronized form: significantly weaker
  activity on morphine analgesia in comparison (to micronized magnesium lactate / to micronized form): much weaker
[1]; [5]
  activity on dihydrocodeine analgesia in comparison (to micronized form / to magnesium lactate): significantly weaker
[1]; [4]
  activity on oxycodone analgesia compared to micronized form: enhanced oxycodone analgesia significantly less when compared to the micronized form
[1]
  analgesic activity on separate administration (codeine study): did not exhibit analgesic activity
  analgesic activity / pain perception threshold on separate administration (dihydrocodeine study): did not exhibit analgesic activity
  analgesic activity / pain threshold when administered alone (morphine study): did not alter the pain threshold
  analgesic activity on separate administration (oxycodone study): showed no analgesic activity
  analgesic activity on separate administration (tramadol study): did not exhibit analgesic activity
